Experimental data: article PMC5762338, “A novel orally available Syk/Src/Jak2 inhibitor, SKLB-850, showed potent anti-tumor activities in B cell lymphoma (BCL) models” (Oncotarget, 2017)
Values joined by “and” are separate entries in the source; they are usually repeats but may differ in a detail not shown here. Equal values may be shown once.

Legend:
MKK4 = molecular target: T1, MKK4 (Mus musculus, UniProt P47809); assay: Kinase inhibition, 33P radiometric assay (Millipore Kinase Profiler); assay type: biochemical
T1 construct: purchased Millipore (Kinase Profiler service)
Protocol: (§1) Kinase inhibitory potency of SKLB-850 against a number of selected kinases were measured with gold-standard^33 P radio-labeled technology. […] For the remaining 11 kinases tested, SKLB-850 exibited very weak or no activity (IC50 > 10 μM).
(§2) The IC50 values of SKLB-850 for kinase inhibition in vitro were measured by radiometric assays conducted by Kinase Profiler service provided by Millipore as described in Pan’s study.

EGRF = molecular target: T2, EGRF (Homo sapiens, UniProt P00533); assay: as above; assay type: biochemical; conditions: EGRF (text: EGFR)
T2 construct: purchased Millipore (Kinase Profiler service)
Protocol: as §1, §2

[1] = system: CD184 expression of Ramos cells; assay: CD184 (CXCR4) surface expression by flow cytometry; assay type: cell-based, Human
Protocol: (§3) And BCL cells could migrate toward the chemokine CXCL12 upon activation of its receptor CD184 [27].
The expression of surface molecules was analyzed by flow cytometry, using the following monoclonal antibody CD184 (CXCR4), and the relevant isotype controls mAbs (BD biosciences). A total of 10^6 mononuclear cells were incubated for 30 minutes at 4°C with saturating concentrations of mAbs, and the cells were washed twice and analyzed with a flow cytometer (BD FACSCalibur, BD, USA).

[2] = system: Ki67 and CD20 in Ramos tumor tissues; assay: Immunohistochemistry of Ki67 and CD20 in tumor tissues from the Ramos model; assay type: in vivo, NOD/SCID mice; conditions: mouse tumor tissues
Excerpt: The ability of inducing apoptosis of SKLB-850 in tumor tissues was examined by TUNEL. […] We then examined apoptotic tumor cells in B-cell lymphoma samples from BCL patients after SKLB-850 treatment by FCM. As shown in Figure 6C and 6F, SKLB-850 induced cell apoptosis (14.10 ± 4.04%), and R788 had the same effect but relatively weak (7.60 ± 0.52%). To better understand the mechanism of antitumor activities in vivo, Ki67 and CD20 in mouse tumor tissues were detected by immunohischemistry; Ki67 was a marker of proliferation in the diagnosis of tumors and CD20 was highly expressed in B cell lymphomas.
Paraffin sections from each group were stained with hematoxylineosin (H&E). For immunohistochemistry studies, tumor tissues in the Ramos model were performed and the following antibodies were used: phospho-Src (Cell Signaling Technology, 1:100), phospho-FAK (Cell Signaling Technology, 1:100), phospho-Stat3 (Cell Signaling Technology, 1:100), NF-κB p-65(Cell Signaling Technology, 1:100) and phospho-Syk (Cell Signaling Technology, 1:100). Additionally, Rat anti-mouse CD31 antibody (BD Biosciences, USA) and anti-Ki67 antibody (Gene Tech) were used to determine vessel density and cell proliferation following the manufacturer’s protocol, respectively. A DAKO polymer secondary antibody system (Dako Envision 1K4007) was used for secondary detection. […]

CFPAC-1 = assay: MTT anti-viability assay; assay type: cell-based; conditions: CFPAC-1, Human pancreatic cancer cell, 72 hours
Protocol: (§4) In vitro anti-viability activities of SKLB-850 against various tumor cell lines were measured using the MTT method.
(§5) Human cancer cell lines Ramos-ZHL, HBL-1, SuDHL-6, LY-10, LY-1, RAJI, MDA-MB-231, SW1990, SMMC7721, MCF-7, CFPAC-1, HPAC, A549 and H358 were obtained from American Type Culture Collection (ATCC). All tumor cell lines were maintained according to the ATCC procedures and passaged for less than 6 months after receipt for resuscitation. These cells were cultured in RPMI-1640 supplemented with 10% fetal bovine serum (FBS).
(§6) Cell proliferation was measured using the MTT assay as previously described. Various cells including were treated with indicated concentrations of SKLB-850 for 72 hours. R788 (Selleck.cn) was served as a positive control. Each assay was replicated 3 times.

SW1990 = assay: MTT anti-viability assay; assay type: cell-based; conditions: SW1990, Human pancreatic cancer cell, 72 hours
Protocol: as §4, §5, §6

H358 = assay: MTT anti-viability assay; assay type: cell-based; conditions: 72 hours
Protocol: as §4, §5, §6

MCF-7 = assay: MTT anti-viability assay; assay type: cell-based; conditions: MCF7, MCF-7, Human breast cancer cell, 72 hours
Protocol: as §4, §5, §6

SMMC7721 = assay: MTT anti-viability assay; assay type: cell-based; conditions: SMMC-7721, SMMC7721, Human hepatocellular carcinoma cell, 72 hours
Protocol: as §4, §5, §6

RAJI = assay: MTT anti-viability assay; assay type: cell-based; conditions: Human B cell lymphoma, 72 hours
Protocol: as §4, §5, §6

Ramos-ZHL = assay: MTT anti-viability assay; assay type: cell-based; conditions: Human B cell lymphoma, 72 hours
Protocol: as §4, §5, §6

SuDHL-6 = assay: MTT anti-viability assay; assay type: cell-based; conditions: SU-DHL-6, SuDHL-6, Human follicular B cell lymphoma, 72 hours
Protocol: as §4, §5, §6

A549 = assay: MTT anti-viability assay; assay type: cell-based; conditions: A549, Human non-small cell lung cancer cells, 72 hours
Protocol: as §4, §5, §6

LY-10 = assay: MTT anti-viability assay; assay type: cell-based; conditions: LY10, LY-10, Human diffuse large B cell lymphoma, 72 hours
Protocol: as §4, §5, §6

MDA-MB-231 = assay: MTT anti-viability assay; assay type: cell-based; conditions: MDA-MB-231, Human breast cancer cell, 72 hours
Protocol: as §4, §5, §6

HPAC = assay: MTT anti-viability assay; assay type: cell-based; conditions: Human pancreatic cancer cell, 72 hours
Protocol: as §4, §5, §6

HBL-1 = assay: MTT anti-viability assay; assay type: cell-based; conditions: HBL1, HBL-1, Human diffuse large B cell lymphoma, 72 hours
Protocol: as §4, §5, §6

LY-1 = assay: MTT anti-viability assay; assay type: cell-based; conditions: Ly1, LY-1, Human diffuse large B cell lymphoma, 72 hours
Protocol: as §4, §5, §6

Ramos cells = assay: Chemotaxis assay toward CXCL12 (transwell); assay type: cell-based, Human; conditions: CXCL12 200ng/mL, 12 hours
Protocol: as §3
Chemotaxis assay was performed as previously described. Briefly, 1×10^6 Ramos cells were cultured in RPMI 1640 containing 0.5% bovine serum albumin and were pre-incubated for 30 minutes with SKLB-850, R788 or DMSO, and then they were added to the inserts of transwell chambers (5μm poresize; Corning). Inserts were then transferred into wells containing CXCL12 (200ng/mL). After 12 hours, cell count was determined for the upper and lower well in duplicates using a flow cytometer (Novocyte Technologies, China). Chemotaxis indices were calculated as: [number of cells in the lower chamber×100] / [number of cells in the lower and upper chambers]. The chemotaxis index with SKLB-850 was calculated as percentage of the DMSO index.

T2 sequence (P00533 25-1210): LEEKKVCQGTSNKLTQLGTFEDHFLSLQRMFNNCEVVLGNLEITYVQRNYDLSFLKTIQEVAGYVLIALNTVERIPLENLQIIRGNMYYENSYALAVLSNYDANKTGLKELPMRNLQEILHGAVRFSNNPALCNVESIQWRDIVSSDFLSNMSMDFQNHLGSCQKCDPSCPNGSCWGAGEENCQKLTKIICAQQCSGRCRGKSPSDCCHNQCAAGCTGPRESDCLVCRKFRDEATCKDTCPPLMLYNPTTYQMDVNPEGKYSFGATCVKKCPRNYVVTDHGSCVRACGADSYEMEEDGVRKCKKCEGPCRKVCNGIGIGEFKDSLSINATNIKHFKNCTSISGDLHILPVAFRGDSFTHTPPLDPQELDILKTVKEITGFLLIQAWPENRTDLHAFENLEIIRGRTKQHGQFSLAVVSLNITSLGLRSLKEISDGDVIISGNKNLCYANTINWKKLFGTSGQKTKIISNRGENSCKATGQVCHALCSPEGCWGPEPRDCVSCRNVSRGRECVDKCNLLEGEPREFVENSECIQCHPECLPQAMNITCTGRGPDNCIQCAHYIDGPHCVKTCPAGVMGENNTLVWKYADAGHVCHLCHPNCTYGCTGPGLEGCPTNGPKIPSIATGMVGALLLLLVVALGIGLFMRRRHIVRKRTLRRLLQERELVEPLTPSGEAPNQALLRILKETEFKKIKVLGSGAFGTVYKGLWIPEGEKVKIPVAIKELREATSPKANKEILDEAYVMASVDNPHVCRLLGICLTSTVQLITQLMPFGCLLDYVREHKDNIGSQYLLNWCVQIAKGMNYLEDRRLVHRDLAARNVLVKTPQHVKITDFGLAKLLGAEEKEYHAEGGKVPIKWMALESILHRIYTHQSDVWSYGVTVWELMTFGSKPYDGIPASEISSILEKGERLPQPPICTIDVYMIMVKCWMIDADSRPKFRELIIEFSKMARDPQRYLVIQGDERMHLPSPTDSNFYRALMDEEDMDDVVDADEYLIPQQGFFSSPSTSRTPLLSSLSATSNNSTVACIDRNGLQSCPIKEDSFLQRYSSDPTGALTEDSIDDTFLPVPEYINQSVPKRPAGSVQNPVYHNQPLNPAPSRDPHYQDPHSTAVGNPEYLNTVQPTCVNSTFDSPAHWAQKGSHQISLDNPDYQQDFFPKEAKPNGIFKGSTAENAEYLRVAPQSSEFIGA
T1 sequence (P47809 2-397 limits assumed): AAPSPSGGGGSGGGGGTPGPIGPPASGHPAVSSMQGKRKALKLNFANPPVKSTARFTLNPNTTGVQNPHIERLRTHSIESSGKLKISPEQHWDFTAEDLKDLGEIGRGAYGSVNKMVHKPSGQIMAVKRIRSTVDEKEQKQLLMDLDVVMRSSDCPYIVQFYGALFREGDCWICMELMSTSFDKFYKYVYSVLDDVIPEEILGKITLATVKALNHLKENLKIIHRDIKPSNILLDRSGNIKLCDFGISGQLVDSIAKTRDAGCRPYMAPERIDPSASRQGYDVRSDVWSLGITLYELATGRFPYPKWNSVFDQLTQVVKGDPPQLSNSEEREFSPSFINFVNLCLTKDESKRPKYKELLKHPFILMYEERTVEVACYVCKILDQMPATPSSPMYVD

## CN1CCN(c2ccc(Nc3ncc(F)c(Nc4ccc(Cl)cc4C(N)=O)n3)cc2)CC1 [SKLB-850, 5-chloro-2-((5-fluoro-2-((4-(4-methylpiperazin-1-yl)phenyl)amino)pyrimidin-4-yl)amino) benzamide]
MKK4
  IC50: > 10000 nM
EGRF
  IC50: 260 nM and 255 nM
[1]
  expression of CD184 (in words): decreased the expression of CD184
[2]
  CD20 expression (in words): significant reduction
  Ki67 expression (in words): significant reduction
CFPAC-1
  IC50: 7240 nM
SW1990
  IC50: 2190 nM
H358; H358, Human non-small cell lung cancer cells
  IC50 anti-viability: did not exhibit activity
H358; NCI-H358, H358, Human non-small cell lung cancer cells
  IC50: > 20000 nM
MCF-7
  IC50: 7230 nM
SMMC7721
  IC50: 2200 nM
RAJI
  IC50: 1950 nM
Ramos-ZHL
  IC50: 30 nM
SuDHL-6
  IC50: 900 nM
A549
  IC50: > 20000 nM
  IC50 anti-viability: did not exhibit activity
LY-10
  IC50: 900 nM
MDA-MB-231
  IC50: 2190 nM
HPAC
  IC50: > 20000 nM
  IC50 anti-viability: did not exhibit activity
HBL-1
  IC50: 690 nM
LY-1
  IC50: 1600 nM
Ramos cells
  Ramos cell chemotaxis toward CXCL12 (in words): reduced the percentage of Ramos cell chemotaxis toward CXCL12
